Data on 13 compounds can be found in ChEMBL document CHEMBL2203232, “Design and discovery of new (3S,5R)-5-[4-(2-chlorophenyl)-2,2-dimethyl-5-oxopiperazin-1-yl]piperidine-3-carboxamides as potent renin inhibitors” (Bioorg Med Chem Lett, 2012).

Data set [1] concerns the target T1, Renin (Macaca fascicularis, UniProt Q6DLS0).
T1 sequence (Q6DLS0 whole entry): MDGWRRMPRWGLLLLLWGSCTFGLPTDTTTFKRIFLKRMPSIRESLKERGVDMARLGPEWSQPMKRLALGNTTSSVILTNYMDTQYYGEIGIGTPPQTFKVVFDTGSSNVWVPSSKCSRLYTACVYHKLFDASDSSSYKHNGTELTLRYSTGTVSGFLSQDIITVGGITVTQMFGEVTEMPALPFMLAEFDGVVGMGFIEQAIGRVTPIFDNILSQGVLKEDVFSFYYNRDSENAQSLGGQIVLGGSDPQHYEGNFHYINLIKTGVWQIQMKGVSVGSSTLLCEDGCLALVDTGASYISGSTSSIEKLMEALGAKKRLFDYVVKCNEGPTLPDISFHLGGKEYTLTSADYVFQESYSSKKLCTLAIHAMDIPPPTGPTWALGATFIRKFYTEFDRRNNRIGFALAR
The experiment in a line: Inhibition of renin in cynomolgus monkey plasma after 60 mins by competitive radioimmunoassay.

The target in data set [2] is T2, Renin (Homo sapiens, UniProt P00797).
T2 sequence (P00797 whole entry): T1 sequence (Q6DLS0 whole entry) with A68T, L214I, A235S
Briefly: Inhibition of recombinant human renin using Arg-Glu(EDANS)-Ile-His-Pro-Phe-His-Leu-Val-Ile-His-Thr-Lys(DABCYL)-Arg as substrate incubated for 10 mins prior to substrate addition measured after 90 mins by fluorimetric analysis.

For data set [3], the system named is Rattus norvegicus. The experiment in a line: Antihypertensive activity in transgenic rat expressing human angiotensin and renin assessed as reduction in mean arterial blood pressure at 10 mg/kg, po measured up to 24 hrs. The note with it: Artery. Type of data set: functional, organism-based. The arrangement: dose 10 mg/kg.
Data set [4] can be described thus: Half life in Sprague-Dawley rat at 1 mg/kg, iv. Type of data set: ADME, organism-based. Also noted: dose 1 mg/kg, route intravenous. The note with it: in vivo.
Data set [5] can be described thus: Volume of distribution at steady state in Sprague-Dawley rat at 1 mg/kg, iv. The note with it: in vivo, read-out: Vdss. The arrangement: dose 1 mg/kg, route intravenous. Type of data set: ADME, organism-based.
A short description of data set [6]: Clearance in Sprague-Dawley rat at 1 mg/kg, iv. Type of data set: ADME, organism-based. The arrangement: dose 1 mg/kg, route intravenous. The note with it: in vivo.
Data set [7] in a line: AUC (0 to 24 hrs) in Sprague-Dawley rat at 10 mg/kg, po. Type of data set: ADME, organism-based. To be noted: plasma. Also noted: time < 24 hr, dose 10 mg/kg, route oral.
Data set [8] can be described thus: Cmax in Sprague-Dawley rat at 10 mg/kg, po. Type of data set: ADME, organism-based. The arrangement: dose 10 mg/kg, route oral. To be noted: in vivo.
Data set [9] is described as follows: Oral bioavailability in Sprague-Dawley rat at 10 mg/kg. Type of data set: ADME, organism-based. To be noted: in vivo.

Where a chain is given by its changes, count along the chain named. Calls of active or inactive are those of the source. The calls are words filed in the database; no cut-off is given here. Some results are limits rather than exact numbers.

As for `CC(C)C[C@@H](NC(=O)[C@@H]1CNC[C@H](N2CC(=O)N(c3ccccc3Cl)CC2(C)C)C1)C(O)C(C)C` (stereo in doubt; 14), the IC50 in data set [1] came out at 7.5 nM; in [2], 2.5 nM.

With `CCOC[C@@H](CC(C)C)NC(=O)[C@@H]1CNC[C@H](N2CC(=O)N(c3ccccc3Cl)CC2(C)C)C1.O=C(O)/C=C/C(=O)O`, the outcome in data set [3] was Active. The compound also showed a half-life in data set [4] of 3.2 h. In addition, in [5], the Vd was 5.8 L/kg. The compound also returned a clearance in data set [6] of 31 mL/min/kg. This compound gave an AUC(0-t) at 24 h in data set [7] of 1940 ng·h/mL. In data set [8], this compound had a Cmax of 540 ng/mL. Also, in data set [9], the bioavailability worked out at 45%. Besides, the IC50 in data set [1] turned out to be 1.4 nM; in data set [2] it was 1.3 nM.

For the compound `CC(C)C[C@@H](NC(=O)[C@@H]1CNC[C@H](N2CC(=O)N(c3ccccc3Cl)CC2(C)C)C1)C(=O)N(C)C`, the half-inhibitory concentration (IC50) came to 23 nM in data set [1] and 8.4 nM in [2].

As for `CC[C@H](CC(C)C)NC(=O)[C@@H]1CNC[C@H](N2CC(=O)N(c3ccccc3Cl)CC2(C)C)C1`, the IC50 in data set [1] stood at 16 nM; in [2], 2.8 nM.

The compound `CC(C)CCNC(=O)[C@@H]1CNC[C@H](CN2CC(=O)N(c3ccccc3Cl)CC2(C)C)C1` yielded an IC50 in data set [1] of more than 1000 nM.

For the compound `CC[C@@H](NC(=O)[C@@H]1CNC[C@H](N2CC(=O)N(c3ccccc3Cl)CC2(C)C)C1)c1ccccc1`, the IC50 in data set [1] amounted to 6.6 nM; in [2] it was 2.1 nM.

For `CC(C)CCNC(=O)[C@@H]1CNC[C@H](C(=O)N2CC(=O)N(c3ccccc3Cl)CC2(C)C)C1`, the IC50 in [1] and in [2] was more than 1000 nM each time.

With `CC(C)C[C@@H](NC(=O)[C@@H]1CNC[C@H](N2CC(=O)N(c3ccccc3Cl)CC2(C)C)C1)C(O)C(C)C` (stereo in doubt; 13), the IC50 in data set [1] came out at 4.8 nM; in data set [2], 2.3 nM.

On to `CCC[C@@H](NC(=O)[C@@H]1CNC[C@H](N2CC(=O)N(c3ccccc3Cl)CC2(C)C)C1)c1ccccc1`, for which the IC50 in [1] is 18 nM; in [2] it was 2.5 nM.

For `CC(C)C[C@@H](NC(=O)[C@@H]1CNC[C@H](N2CC(=O)N(c3ccccc3Cl)CC2(C)C)C1)c1cccnc1`, the IC50 in [1] is 4.2 nM; in [2], 2.1 nM.

For the compound `CC(C)CCNC(=O)[C@@H]1CNC[C@H](N2CC(=O)N(c3ccccc3Cl)CC2(C)C)C1`, the IC50 in data set [1] came to 54 nM.

As to `CC(C)C[C@@H](NC(=O)[C@@H]1CNC[C@H](N2CC(=O)N(c3ccccc3Cl)CC2(C)C)C1)c1ccccc1`, the IC50 is 9 nM in data set [1] and 2.1 nM in data set [2].

In [1], `CC(C)CC(CC(C)C)NC(=O)[C@@H]1CNC[C@H](N2CC(=O)N(c3ccccc3Cl)CC2(C)C)C1` gave an IC50 of 10 nM.
